Laboratory results as given in patent publication US8129434B2, “Benzylphenyl cyclohexane derivatives and methods of use” (Theracos, Inc., priority 2007, dated 2012).

How the values were obtained:
[1] = molecular target: T1, human SGLT2 (Homo sapiens, UniProt P31639); experiment: Methyl-α-D-[U-14C]glucopyranoside uptake assay, cells stably expressing human SGLT2; assay type: cell-based; conditions: HEK293.ETN cells stably expressing human SGLT2; 25% human serum; 1.5 h at 37° C.; sodium-dependent uptake
T1 construct: A full-length cDNA clone expressing human SGLT2 (GenScript Corporation) was subcloned into Hind III and Not I sites of pEAK15 expression vector
T1 sequence (P31639 1-672): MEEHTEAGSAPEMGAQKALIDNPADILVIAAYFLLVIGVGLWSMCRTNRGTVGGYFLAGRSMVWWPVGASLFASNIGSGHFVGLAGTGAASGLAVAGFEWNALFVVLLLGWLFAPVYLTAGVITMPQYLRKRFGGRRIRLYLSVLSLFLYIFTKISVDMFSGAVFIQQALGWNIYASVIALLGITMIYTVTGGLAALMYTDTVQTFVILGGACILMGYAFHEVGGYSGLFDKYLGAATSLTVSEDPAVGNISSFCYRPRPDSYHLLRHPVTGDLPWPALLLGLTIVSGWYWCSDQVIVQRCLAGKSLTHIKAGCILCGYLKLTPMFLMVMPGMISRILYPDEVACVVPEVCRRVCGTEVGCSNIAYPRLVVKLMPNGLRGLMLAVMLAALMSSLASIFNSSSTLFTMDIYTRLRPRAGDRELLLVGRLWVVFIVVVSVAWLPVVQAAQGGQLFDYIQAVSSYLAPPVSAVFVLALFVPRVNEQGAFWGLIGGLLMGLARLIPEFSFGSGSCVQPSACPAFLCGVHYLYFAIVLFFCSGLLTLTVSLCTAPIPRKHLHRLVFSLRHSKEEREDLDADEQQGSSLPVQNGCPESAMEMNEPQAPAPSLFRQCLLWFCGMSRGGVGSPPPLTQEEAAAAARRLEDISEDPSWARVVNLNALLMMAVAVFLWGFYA
Excerpt: A full-length cDNA clone expressing human SGLT2 (GenScript Corporation) was subcloned into Hind III and Not I sites of pEAK15 expression vector. Clones harboring the cDNA inserts were identified by restriction analysis.
Plasmid containing human SGLT2 was linearized with Nsi I and purified by agarose gel electrophoresis. Using Lipofectamine 2000 Transfection Reagent (Invitrogen Corporation), DNA was transfected into HEK293.ETN cells and cultured in Dulbecco's Modified Eagle Medium (DMEM) containing 10% fetal bovine serum (FBS) at 37° C. under 5% CO2 for 24 h. Transfectants were selected in the same growth medium supplemented with puromycin (Invitrogen Corporation) for two weeks. Puromycin-resistant cells were recovered and seeded on a fresh 96-well plate (single cell per well) and cultured in the presence of puromycin until cells became confluent. Puromycin-resistant clones were evaluated for SGLT2 activity in the methyl-α-D-[U-^14C]glucopyranoside uptake assay described below.
(§1) Cells expressing SGLT1 or SGLT2 were seeded on 96-well ScintiPlate scintillating plates (PerkinElmer, Inc.) in DMEM containing 10% FBS (1×10^5 cells per well in 100 μl medium) incubated at 37° C. under 5% CO2 for 48 h prior to the assay. Cells were washed twice with 150 μl of either sodium buffer (137 mM NaCl, 5.4 mM KCl, 2.8 mM CaCl2, 1.2 mM MgCl2, 10 mM tris(hydroxymethyl)aminomethane/N-2-hydroxyethylpiperazine-N′-ethanesulfonic acid [Tris/Hepes], pH 7.2) or sodium-free buffer (137 mM N-methyl-glucamine, 5.4 mM KCl, 2.8 mM CaCl2, 1.2 mM MgCl2, 10 mM Tris/Hepes, pH 7.2). Test compound in 50 μl each of sodium or sodium-free buffer containing 40 μCi/ml methyl-α-D-[U-^14C]glucopyranoside (Amersham Biosciences/GE Healthcare) and 25% human serum was added per well of a 96-well plate and incubated at 37° C. with shaking for either 2 h (SGLT1 assay) or 1.5 h (SGLT2 assay). Cells were washed twice with 150 μl of wash buffer (137 mM N-methylglucamine, 10 mM Tris/Hepes, pH 7.2) and methyl-α-D-[U-^14C]glucopyranoside uptake was quantitated using a TopCount scintillation counter (PerkinElmer, Inc.). Sodium-dependent glucopyranoside uptake was measured by subtracting the values obtained with sodium-free buffer from those obtained using sodium buffer (average of triplicate determinations).

[2] = molecular target: T2, human SGLT1 (Homo sapiens, UniProt P13866); experiment: Methyl-α-D-[U-14C]glucopyranoside uptake assay, human SGLT1 expressing cells; assay type: cell-based; conditions: COS-7 cells transfected with human SGLT1; 25% human serum; 2 h at 37° C.; sodium-dependent uptake
T2 construct: Full-length human SGLT1 cDNA on pDream2.1 expression vector was obtained from GenScript Corporation; host or cells: COS-7 (American Type Culture Collection)
T2 sequence (P13866 1-664): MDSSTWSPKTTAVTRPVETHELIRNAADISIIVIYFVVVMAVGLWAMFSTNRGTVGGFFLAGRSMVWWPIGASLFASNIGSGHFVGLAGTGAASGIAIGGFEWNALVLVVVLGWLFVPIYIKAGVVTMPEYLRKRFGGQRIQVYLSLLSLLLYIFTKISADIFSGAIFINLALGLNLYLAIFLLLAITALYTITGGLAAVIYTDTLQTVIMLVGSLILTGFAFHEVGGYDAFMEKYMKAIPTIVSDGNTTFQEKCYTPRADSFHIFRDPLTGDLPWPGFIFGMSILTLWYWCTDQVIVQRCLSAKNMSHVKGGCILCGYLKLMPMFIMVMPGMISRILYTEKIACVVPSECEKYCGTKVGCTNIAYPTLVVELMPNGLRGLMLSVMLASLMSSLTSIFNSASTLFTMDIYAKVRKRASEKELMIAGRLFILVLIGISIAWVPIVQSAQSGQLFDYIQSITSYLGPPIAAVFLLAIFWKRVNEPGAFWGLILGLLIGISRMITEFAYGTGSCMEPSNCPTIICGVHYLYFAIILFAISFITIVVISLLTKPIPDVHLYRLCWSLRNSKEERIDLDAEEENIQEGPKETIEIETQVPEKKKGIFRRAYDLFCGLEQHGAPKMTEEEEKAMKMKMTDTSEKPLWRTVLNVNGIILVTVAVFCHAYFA
Description: Full-length human SGLT1 cDNA on pDream2.1 expression vector was obtained from GenScript Corporation and propagated in Escherichia coli strain DH5α using Luria-Bertani (LB) medium containing ampicillin. Plasmid DNA was isolated using the QIAGEN Plasmid Midi Kit (QIAGEN Inc.). […] Transfected cells were stored in DMEM containing 10% dimethyl sulfoxide (DMSO) at −80 ° C.
as §1

| SMILES | IC50 [1] [µM] | IC50 [2] [µM] |
| --- | --- | --- |
| CCc1ccc(Cc2cc([C@H]3[C@H](O)[C@@H](O)[C@H](O)[C@@H](CO)[C@@H]3O)ccc2Cl)cc1 [5 (R = Et), (1R,2R,3S,4R,5R,6S)-4-(4-chloro-3-(4-ethylbenzyl)phenyl)-6-(hydroxymethyl)cyclohexane-1,2,3,5-tetraol] | < 1 | < 1 |
| CCOc1ccc(Cc2cc([C@H]3[C@H](O)[C@@H](O)[C@H](O)[C@@H](CO)[C@@H]3O)ccc2Cl)cc1 [Compound 9, (1R,2R,3S,4R,5R,6S)-4-(4-chloro-3-(4-ethoxybenzyl)phenyl)-6-(hydroxymethyl)cyclohexane-1,2,3,5-tetraol] | < 1 | 1 to 10 |
| OC[C@@H]1[C@@H](O)[C@H](O)[C@@H](O)[C@H](c2ccc(Cl)c(Cc3ccc(C4CC4)cc3)c2)[C@H]1O [Compound 10, (1R,2R,3S,4R,5R,6S)-4-(4-chloro-3-(4-cyclopropylbenzyl)phenyl)-6-(hydroxymethyl)cyclohexane-1,2,3,5-tetraol] | < 1 | < 1 |
| CCCc1ccc(Cc2cc([C@H]3[C@H](O)[C@@H](O)[C@H](O)[C@@H](CO)[C@@H]3O)ccc2Cl)cc1 [Compound 11, (1R,2R,3S,4R,5R,6S)-4-(4-chloro-3-(4-propylbenzyl)phenyl)-6-(hydroxymethyl)cyclohexane-1,2,3,5-tetraol] | < 1 | 1 to 10 |
| OC[C@@H]1[C@@H](O)[C@H](O)[C@@H](O)[C@H](c2ccc(Cl)c(Cc3ccc(C4CCCCC4)cc3)c2)[C@H]1O [Compound 12, (1R,2R,3S,4R,5R,6S)-4-(4-chloro-3-(4-cyclohexylbenzyl)phenyl)-6-(hydroxymethyl)cyclohexane-1,2,3,5-tetraol] | < 1 | > 10 |
| OC[C@H]1C=C(c2ccc(Cl)c(Cc3ccc(OCC#CC4CC4)cc3)c2)[C@H](O)[C@@H](O)[C@@H]1O [Compound 13, (1R,2S,3S,6R)-4-(4-chloro-3-(4-(3-cyclopropylprop-2-ynyloxy)benzyl)phenyl)-6-(hydroxymethyl)cyclohex-4-ene-1,2,3-triol] | < 1 | > 10 |
| CCc1ccc(Cc2cc([C@H]3[C@H](O)[C@@H](O)[C@H](O)[C@@H](COC(C)=O)[C@@H]3O)ccc2Cl)cc1 [Compound 17, ((1S,2R,3R,4S,5R,6R)-3-(4-chloro-3-(4-ethylbenzyl)phenyl)-2,4,5,6-tetrahydroxycyclohexyl)methyl acetate] | < 1 | 1 to 10 |
| CCc1ccc(Cc2ccccc2O[C@H]2[C@H](O)[C@@H](O)[C@H](O)[C@@H](CO)[C@@H]2O)cc1 [Compound 30, (1R,2S,3R,4R,5S,6R)-4-(2-(4-ethylbenzyl)phenoxy)-6-(hydroxymethyl)cyclohexane-1,2,3,5-tetraol] | < 1 | > 10 |
| C=C1[C@H](CO)[C@@H](O)[C@H](O)[C@@H](O)[C@@H]1c1ccc(Cl)c(Cc2ccc(CC)cc2)c1 [Compound 35, (1R,2R,3S,4S,6R)-4-(4-chloro-3-(4-ethylbenzyl)phenyl)-6-(hydroxymethyl)-5-methylenecyclohexane-1,2,3-triol] | < 1 | 1 to 10 |
| CCc1ccc(Cc2cc([C@H]3[C@H](O)[C@@H](O)[C@H](O)[C@@H](CO)C34CC4)ccc2Cl)cc1 [Compound 37, (4S,5S,6R,7R,8R)-4-(4-chloro-3-(4-ethylbenzyl)phenyl)-8-(hydroxymethyl)spiro[2.5]octane-5,6,7-triol] | < 1 | 1 to 10 |
| CC(=O)c1ccc(Cc2cc([C@H]3[C@H](O)[C@@H](O)[C@H](O)[C@@H](CO)[C@@H]3O)ccc2Cl)cc1 [Compound 39, 1-(4-(2-chloro-5-((1R,2S,3R,4R,5S,6R)-2,3,4,6-tetrahydroxy-5-(hydroxymethyl)cyclohexyl)benzyl)phenyl)ethanone] | < 1 | 1 to 10 |
| CC(O)c1ccc(Cc2cc([C@H]3[C@H](O)[C@@H](O)[C@H](O)[C@@H](CO)[C@@H]3O)ccc2Cl)cc1 (stereo partly drawn) [Compound 40, (1R,2R,3S,4R,5R,6S)-4-(4-chloro-3-(4-(1-hydroxyethyl)benzyl)phenyl)-6-(hydroxymethyl)cyclohexane-1,2,3,5-tetraol] | < 1 | 1 to 10 |
